According to patent US20210137857A1, “A COMPOSITION FOR TREATMENT OR PREVENTION OF A NEURODEGENERATIVE DISEASE” (NEILOS S.R.L., priority 2017, published 2021):

Experiments:
[1] = human, in vivo; cited from earlier work
[2] = Solubility tests on the test compounds; format: physicochemical

Molecule | patients treated with increase in serum transaminases [1] | patients with abdominal cramps, anorexia, nausea, vomiting and diarrhoea [1] | Solubility test RESULT [2]
Nc1c2c(nc3ccccc13)CCCC2 [Tacrine] | more than 50% | more than a third of patients | 
Amyloid β peptide 1-42 [Peptide β1-42] |  |  | POSITIVE
